Results as given in paper PMC3688580, “Crystal Structure, SAXS and Kinetic Mechanism of Hyperthermophilic ADP-Dependent Glucokinase from Thermococcus litoralis Reveal a Conserved Mechanism for Catalysis” (PLoS ONE, 2013).

What was measured:
[1] = biological target: T1, TlGK (ADP-dependent glucokinase from Thermococcus litoralis) (Thermococcus litoralis, UniProt Q7M537); test: X-ray crystal structure […] Å; SAXS; format: binding
T1 construct: gene glkA; recombinant, purified from LB culture as in Merino et al. (heat shock, ammonium sulfate, two chromatographic steps); two-domain enzyme

[2] = biological target: T1, TlGK (ADP-dependent glucokinase from Thermococcus litoralis); test: product inhibition, discontinuous pyruvate kinase / lactate dehydrogenase assay; format: biochemical; details: mixed type vs Mg·ADP and vs D-glucose; read-out: inhibition constants
[3] = biological target: T1, TlGK (ADP-dependent glucokinase from Thermococcus litoralis); test: isothermal titration calorimetry (data not shown); also SAXS; format: binding; details: absence of D-glucose; active site; MgADP
[4] = biological target: T1, TlGK (ADP-dependent glucokinase from Thermococcus litoralis); test: product inhibition, G6PDH-coupled assay; format: biochemical; details: competitive vs Mg·ADP, mixed vs D-glucose; Mg·AMP; pH 7.8; 40 °C

T1 sequence (Q7M537 whole entry): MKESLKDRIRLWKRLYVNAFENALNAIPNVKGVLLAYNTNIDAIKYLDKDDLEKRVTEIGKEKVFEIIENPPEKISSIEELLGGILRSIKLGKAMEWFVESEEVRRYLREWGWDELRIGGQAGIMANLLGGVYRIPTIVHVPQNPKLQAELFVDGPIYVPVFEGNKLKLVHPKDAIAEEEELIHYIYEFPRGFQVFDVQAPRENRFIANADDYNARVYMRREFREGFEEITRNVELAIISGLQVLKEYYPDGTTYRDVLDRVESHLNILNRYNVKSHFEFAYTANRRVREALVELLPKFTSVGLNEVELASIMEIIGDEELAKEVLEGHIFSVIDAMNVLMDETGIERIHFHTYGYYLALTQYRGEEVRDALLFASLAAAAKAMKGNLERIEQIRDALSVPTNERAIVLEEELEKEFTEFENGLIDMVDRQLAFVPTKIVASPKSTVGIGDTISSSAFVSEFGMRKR

**Q.** Which “X-ray crystal structure 2.58 Å; SAXS” value ([1]; nonhydrolyzable ADP analog with D-glucose and Mg, beta-phosphate lacked density, modelled as AMP) does the source give for `Nc1ncnc2c1ncn2[C@@H]1O[C@H](COP(=O)(O)OP(=O)(O)S)[C@@H](O)[C@H]1O` (some centres unmarked) [ADPβS] here?
**A.** The value was 4B8S (TlGK·Mg·ADPβS·D-glucose).

**Q.** Which Ki [2] does the source give for `O=P(O)(O)OC[C@H]1OC(O)[C@H](O)[C@@H](O)[C@@H]1O` (stereo partly drawn) [D-glucose-6-P] here?
**A.** Its Ki is 782 µM.

**Q.** Which “X-ray crystal structure 2.58 Å; SAXS” value ([1]; ternary complex with Mg·ADPβS, active site) does the source give for `OC[C@H]1OC(O)[C@H](O)[C@@H](O)[C@@H]1O` (stereo partly drawn) [D-glucose] here?
**A.** The value was 4B8S (TlGK·Mg·ADPβS·D-glucose).

**Q.** How did the dissociation constant [3] turn out when `Nc1ncnc2c1ncn2[C@@H]1O[C@H](COP(=O)(O)OP(=O)(O)O)[C@@H](O)[C@H]1O` [Mg·ADP] was run?
**A.** Its dissociation constant is “isothermal titration calorimetry experiments demonstrated binding of MgADP to the enzyme”.

**Q.** Which inhibition constants [4] does the source give for `Nc1ncnc2c1ncn2[C@@H]1O[C@H](COP(=O)(O)O)[C@@H](O)[C@H]1O` [Mg·AMP] here?
**A.** Its inhibition constants is “Mg·AMP behaves as a competitive inhibitor of Mg·ADP”.
